Patent US20220062240A1, “METHODS OF TREATING CANCER USING A CLK INHIBITOR” (BioSplice Therapeutics, Inc., priority 2018, published 2022)
Where two headings read alike, the source gives them in different places.

Tests used:
[1] = test system: SRSF6 and SRSF5 phosphorylation in SW480 cells; experiment: SR phosphorylation immunoblot; assay type: cell-based, human; conditions: SW480, 1 hour
Procedure: FIG. 6A is an immunoblot showing phosphorylated SRSF6 and SRSF5 in SW480 cells treated as indicated for 1 hour. Total SRSF5 and R-actin blots were used as loading controls. The blots are representative of two experiments.
First, it was determined that CLK1, CLK2, and CLK3 localized into the nucleus, while CLK4 was predominantly detected in the cytoplasm (FIG. 5). […]. Zhou et al., Chromosoma 122, 191-207, 2013).
(§1) For indicated experiments, cells were pelleted by centrifugation and washed with PBS and protein from the cell pellet was fractionated into cytoplasmic and nuclear fractions using a NE-PER™Nuclear and Cytoplasmic Extraction Reagents kit containing Halt™ protease and phosphatase inhibitors (Thermo Fisher). Protein concentrations of the samples were quantified using the Pierce Micro BCA protein assay kit (Thermo Fisher). […] Primary antibodies were incubated overnight at 4° C., with GAPDH, Lamin B1 or β-actin being used as loading controls (refer to Table 19 for primary antibodies and dilutions used).

SW480 cells [2] = experiment: Wnt pathway gene (qRT-PCR) and protein (immunoblot) expression; assay type: cell-based, human; conditions: SW480, 24 hours, compared to DMSO
Procedure: Fold-change relative to DMSO is shown (n=3 biological replicates per group, Mean±SD, **P<0.01; ***P<0.001, student's two-tailed t-test).
(§2) FIG. 6D is an immunoblot showing Wnt pathway-related protein expression in SW480 cells treated as indicated for 24 hours. The proteins were separated into nuclear and cytoplasmic fractions. GAPDH and Lamin B1 represent cytoplasmic and nuclear protein loading controls, respectively. The blots are representative of two experiments.
as §2, with “6E” for “6D”, “48” for “24”
The fold-change relative to DMSO is shown (n=3 biological replicates per group, Mean±SD, *P<0.05; **P<0.01; ***P<0.001, student's two-tailed t-test).
FIG. 7C is an immunoblot showing protein expression of hits identified in FIG. 7A. SW480 cells were treated as indicated for 24 hours and proteins were separated into nuclear and cytoplasmic fractions. GAPDH and Lamin B1 represent the cytoplasmic and nuclear protein loading controls, respectively. The blots are representative of two experiments.
as §1
Total RNA was isolated using RNeasy Plus mini kit (Qiagen) or MagMAX Total RNA kit (Thermo Fisher) as per the manufacturers' protocol. cDNA was synthesized using the iScript cDNA Synthesis Kit (Bio-Rad), followed before performing qRT-PCR. Reactions were then run on a real-time PCR system (CFX384; Bio-Rad). Relative gene expression was determined by normalizing to GAPDH using the ΔΔCt method.

[3] = test system: nuclear speckles in SW480 cells; experiment: Nuclear speckle staining (phospho-SC35); assay type: cell-based, human; conditions: SW480, 6 hours, 0.3-10 μM
Procedure: […]. The cells were stained with a phospho-SC35 antibody (green) and a Hoechst 33342 nuclear stain (blue). Scale bar, 10 μm.
FIG. 9A is a set of representative immunofluorescence images (×100 magnification) of SW480 cells treated with indicated concentrations for 6 hours. The cells were stained with a phospho-SC35 antibody (green) and a Hoechst 33342 nuclear stain (blue). Scale bar, 10 μm.
[…]. After approximately 6 hr, cells were fixed and stained a phospho-SC35 antibody (Santa Cruz Biotechnology). Cells were then labelled with an Alexa-Fluor 488 secondary antibody (Thermo Fisher) containing DAPI (Thermo Fisher). Cells were imaged at 100× magnification.

[4] = test system: Wnt responsive TOPflash reporter in SW480 colon cancer cells; experiment: TOPflash β-catenin/TCF-responsive reporter assay; assay type: cell-based, human
Procedure: Human colorectal cancer cell line SW480, stably expressing the Wnt responsive TOPflash promoter linked to luciferase gene (TOPflash) was used along with SW480 stably expressing a control EF1a-Luciferase reporter gene (GenTarget #LVP434) as a counterscreen. […] Cells were plated at ˜10,000 cells/well and incubated for 40 hours. Luminescence was detected using Bright-Glo (Promega Corp.).

SW480 cells [5] = experiment: Cell viability assay in SW480 cells (Compound 12, CC-671, Harmine); assay type: cell-based; conditions: Homo sapiens, SW480, 96 h, read-out: EC50 cell viability
Excerpt: The data is representative from three independent assays performed in quadruplicate.

EC50 [4] [µM] | Compound | SR phosphorylation (SRSF6, SRSF5) [1] | gene expression of AXIN2, LEF1, MYC, TCF7, CTNNB1 and TCF7L2 (SW480 cells [2]) | enlargement of nuclear speckles [3] | EC50 ([4]; Homo sapiens) [µM] | EC50 (SW480 cells [5]) [µM]
– | CNC(=O)c1ccc(Nc2nc(OC3CCCC3)c3c(-c4ccc5nc(C)oc5c4)c[nH]c3n2)c(OC)c1 [CC-671, reference compound] | not as effective as Compound 12 | minimal effect | only at higher doses of 10 μM and 3 μM | – | –
1.06 | C[C@H]1[C@H]2N(C(=O)CN(C)N2C(=O)NCc2ccccc2)[C@@H](Cc2ccc(OP(=O)(O)O)cc2)C(=O)N1Cc1cccc2cccnc12 [PRI-724] | – | – | – | – | –
– | COc1ccc2c(c1)[nH]c1c(C)nccc12 [Harmine] | not active | minimal effect | not observed | > 10 | > 10
